Laboratory results: patent US7141540B2, “Cyclodextrin grafted biocompatible amphilphilic polymer and methods of preparation and use thereof” (Genta Salus LLC, priority 2001, dated 2006)

Legend:
[1] = Paclitaxel loading (solubilisation) by CD polymers or CD monomers; type: physicochemical
Experimental: Preparation of Paclitaxel Complexes with CD Polymers or CD Monomers
(A) Co-dissolving Method: This Method is Suitable for all Complexes with Water Soluble Polymers
The aqueous solution of polymer (or monomer controls) (usually about 100 mg/ml) was mixed with equal volume (usually 40 to 2000 ul) of the paclitaxel solution (Cpaclitael=0.1 to 8.0 mg/ml in methanol). The mixture was incubated at room temperature for about half an hour. Then the solvents were removed in a centrifuge concentrator at room temperature. The concentrated syrup or wax solid was reconstituted by adding water or PBS buffer to the original volume. The mixture was usually a clear or slightly cloudy solution after 30 minutes of reconstitution. The un-dissolved paclitaxel particles were removed either by ultra-filtration (0.2 um filter) or by centrifugation (20 minutes at 20,800 g and room temperature). The paclitaxel concentration in the clear supernatant was quantified by UV absorbance at […] by using the corresponding cyclodextrin polymer solution as the background calibration.
(B) Dialysis Method: This Method is Suitable for the Preparation of all Paclitaxel/polymer Complex Solutions:
The methanol solution of the polymer (usually […]) was mixed with equal volume (100 ul) of paclitaxel solution (1 to 3 mg/ml in methanol). The clear mixture was incubated at room temperature for about half an hour at room temperature, followed by dialysis (MWCO=12,000) overnight against 2 L water. The dialysis solution was usually a clear solution. Trace amounts of paclitaxel particles were removed either by ultra-filtration (0.2 um filter) or by centrifugation (20 minutes at 20,800 g and room temperature). The clear solution was stored at 4° C. or below.

[2] = Stability of Taxol/CD complexes in 50% fetal bovine serum; type: physicochemical; conditions: paclitaxel complex, 50% Serum, room temperature
Experimental: (§1) Stability of Taxol/CD Complexes in 50% Serum or After 10 Fold Dilution in PBS:
(§2) • (A) Stability in 50% fetal bovine serum: Taxol/PEG-L8-AcCD (2.0 mg/50 mg in 1.0 ml PBS buffer) or Taxol/DMCD (0.5 mg/50 mg in PBS buffer) complex solutions were prepared as describe in method A of example 7. Fifty micro liters of the complex solutions were diluted with equal volume of fetal bovine serum respectively. Both mixtures were centrifuged at […] at room temperature after incubation at room temperature for 2 hours, 21 hours, 49 hours and 144 hours, respectively. The Taxol concentration in each supernatant was quantified by measuring the UV absorption at 230 nm. • (B) Stability after 10 fold dilution with PBS: Taxol/PEG-L8-AcCD (2.0 mg/50 mg in 1.0 ml PBS buffer) or Taxol/DMCD (0.5 mg/50 mg in PBS buffer) complex solutions were prepared as describe in example 10. Fifty micro liters of the complex solutions were diluted with 450 micro liter of PBS buffer, respectively. Both mixtures were centrifuged at […] at room temperature after incubated room temperature for 2 hours, 21 hours, 49 hours and 144 hours. The Taxol concentration in each supernatant was quantified by measuring the UV absorption at 230 nm.

[3] = Stability of Taxol/CD complexes after 10 fold dilution with PBS; type: physicochemical; conditions: paclitaxel complex, 10X PBS, room temperature
Experimental: as §1, §2

human red blood cells = test: Hemolysis on fresh human blood cells; type: cell-based; conditions: for Hemolysis (HC50, mM): human red blood cells, 30 minutes at 37° C., 0 to 50 mg/ml in PBS
Experimental: To further investigate the cytotoxicity of our polymers and their possible biodegradation products, their hemolysis effects were tested on fresh human blood cells in comparison with commercial CD monomers as describe below. The degree of hemolysis was reported as a percentage of the total efflux of hemoglobin in distilled water (Table 6)
1. Red blood cells were isolated from whole human blood by centrifugation at 1000 g for 10 minutes.
2. The plasma was removed and the red blood cells re-suspended in normal buffed saline (PBS, 0.154 M sodium chloride and 0.01 M phosphate, pH=7.4). The red blood cells were pelleted by centrifugation (1000 g for 10 minutes).
3. Step 2 was repeated twice to remove the heme released from damaged cells.
4. The final pellet was diluted with PBS to give a hematocrit of approximately 12 (or 5%) as determined by centrifugal sedimentation.
5.2 ml of polymer or cyclodextrin solutions of a series of concentrations from 0 to 50 mg/ml in PBS buffer) equilibrated at 37° C. in PBS buffer were equilibrated at 37° C. To this was added 100 ul of a red blood cell suspension followed by mixing of the sample with gentle inversion. The samples were incubated for 30 minutes at 37° C.
6. The intact cells and cellular debris were pelleted by centrifugation at 1000 g for 5 min. The supernatant was analyzed spectrophotometrically at 543 nm for released heme.

[4] = at 50% CD concentrations; cited from earlier work
[5] = Drug amount in 1.0 ml water or PBS in the presence of 50 mg of polymer or other CD derivatives

methyl-β-cyclodextrin [DM-CD]
Paclitaxel loading (mg/50 mg polymer) ([1]; at day 1, drug amount in 1.0 ml water or PBS in the presence of 50 mg of CD derivative): ˜0.2 (at day 1) mg/50 mg polymer
Remaining paclitaxel % in diluted solution ([2]; 0 hour): 100%
Remaining paclitaxel % in diluted solution ([2]; 2 hour): 100%
Remaining paclitaxel % in diluted solution ([2]; 21 hour): 100%
Remaining paclitaxel % in diluted solution ([2]; 49 hour): 100%
Remaining paclitaxel % in diluted solution ([2]; 144 hour): 100%
Remaining paclitaxel % in diluted solution ([3]; 0 hour): 100%
Remaining paclitaxel % in diluted solution ([3]; 2 hour): 86%
Remaining paclitaxel % in diluted solution ([3]; 21 hour): 13%
Hemolysis (HC50, mM) (human red blood cells): 1.0 mM
paclitaxel dissolved [4]: ~33 mg/mL

Mono-6-(8-amino-3,6-dioxy-octylamino)-6-deoxy-β-cyclodextrin [CD-L8-NH2]
toxicity compared with natural β-cyclodextrin (human red blood cells): much less toxic
Hemolysis (HC50, mM) (human red blood cells): 25 mM

sulfobutylether-β-cyclodextrin [(SBE)7-CD]
Paclitaxel loading (mg/50 mg polymer) [1, 5]: <0.05 mg/50 mg polymer

OC[C@H]1O[C@@H]2O[C@H]3[C@H](O)[C@@H](O)[C@@H](O[C@H]4[C@H](O)[C@@H](O)[C@@H](O[C@H]5[C@H](O)[C@@H](O)[C@@H](O[C@H]6[C@H](O)[C@@H](O)[C@@H](O[C@H]7[C@H](O)[C@@H](O)[C@@H](O[C@H]8[C@H](O)[C@@H](O)[C@@H](O[C@H]1[C@H](O)[C@H]2O)O[C@@H]8CO)O[C@@H]7CO)O[C@@H]6CO)O[C@@H]5CO)O[C@@H]4CO)O[C@@H]3CO [βCD, β-cyclodextrin]
Hemolysis (HC50, mM) (human red blood cells): 4.0 mM

hydoxylpropyl β-cyclodextrin [HP-CD]
Paclitaxel loading (mg/50 mg polymer) [1, 5]: <0.05 mg/50 mg polymer
Hemolysis (HC50, mM) (human red blood cells): 35 mM
paclitaxel dissolved [4]: about 0.7 mg/ml
